Assay results: ChEMBL document CHEMBL3994622, “Design and synthesis of new RAF kinase-inhibiting antiproliferative quinoline derivatives. Part 2: Diarylurea derivatives” (Eur J Med Chem, 2017)

How the values were obtained:
Assay type in all cases: functional
COLO 205 = assay: Growth inhibition of human COLO205 cells incubated for 48 hrs by sulforhodamine B assay; conditions: COLO 205, 48 h
SNB-19 = assay: Growth inhibition of human SNB19 cells assessed as cell growth at 10 uM incubated for 48 hrs by sulforhodamine B assay relative to control; conditions: SNB-19, 48 h, read-out: Activity
EKVX [1] = assay: Growth inhibition of human EKVX cells assessed as cell growth at 10 uM incubated for 48 hrs by sulforhodamine B assay relative to control; conditions: read-out: Activity
NCI-H522 = assay: Growth inhibition of human NCI-H522 cells assessed as cell growth at 10 uM incubated for 48 hrs by sulforhodamine B assay relative to control; conditions: NCI-H522, 48 h, read-out: Activity
RXF 393 [2] = assay: Growth inhibition of human RXF393 cells incubated for 48 hrs by sulforhodamine B assay; conditions: RXF 393, 48 h
SK-MEL-5 = assay: Growth inhibition of human SK-MEL-5 cells assessed as cell growth at 10 uM incubated for 48 hrs by sulforhodamine B assay relative to control; conditions: SK-MEL-5, 48 h, read-out: Activity
MCF7 = assay: Growth inhibition of human MCF7 cells incubated for 48 hrs by sulforhodamine B assay; conditions: MCF7, 48 h
NCI-H322M = assay: Growth inhibition of human NCI-H322M cells incubated for 48 hrs by sulforhodamine B assay
ACHN = assay: Growth inhibition of human ACHN cells assessed as cell growth at 10 uM incubated for 48 hrs by sulforhodamine B assay relative to control; conditions: read-out: Activity
KM12 [3] = assay: Growth inhibition of human KM12 cells assessed as cell growth at 10 uM incubated for 48 hrs by sulforhodamine B assay relative to control; conditions: KM12, 48 h, read-out: Activity
CCRF-CEM = assay: Growth inhibition of human CCRF-CEM cells assessed as cell growth at 10 uM incubated for 48 hrs by sulforhodamine B assay relative to control; conditions: read-out: Activity
SR = assay: Growth inhibition of human SR cells incubated for 48 hrs by sulforhodamine B assay
HOP-62 = assay: Growth inhibition of human HOP62 cells assessed as cell growth at 10 uM incubated for 48 hrs by sulforhodamine B assay relative to control; conditions: HOP-62, 48 h, read-out: Activity
IGROV-1 = assay: Growth inhibition of human IGROV1 cells assessed as cell growth at 10 uM incubated for 48 hrs by sulforhodamine B assay relative to control; conditions: IGROV-1, 48 h, read-out: Activity
UACC-62 [4] = assay: Growth inhibition of human UACC62 cells assessed as cell growth at 10 uM incubated for 48 hrs by sulforhodamine B assay relative to control; conditions: UACC-62, 48 h, read-out: Activity
K562 = assay: Growth inhibition of human K562 cells assessed as cell growth at 10 uM incubated for 48 hrs by sulforhodamine B assay relative to control; conditions: K562, 48 h, read-out: Activity
MDA-MB-468 = assay: Growth inhibition of human MDA-MB-468 cells assessed as cell growth at 10 uM incubated for 48 hrs by sulforhodamine B assay relative to control; conditions: MDA-MB-468, 48 h, read-out: Activity
Malme-3M = assay: Growth inhibition of human MALME-3M cells assessed as cell growth at 10 uM incubated for 48 hrs by sulforhodamine B assay relative to control; conditions: read-out: Activity
RXF 393 [5] = assay: Growth inhibition of human RXF393 cells assessed as cell growth at 10 uM incubated for 48 hrs by sulforhodamine B assay relative to control; conditions: RXF 393, 48 h, read-out: Activity
A498 = assay: Growth inhibition of human A498 cells assessed as cell growth at 10 uM incubated for 48 hrs by sulforhodamine B assay relative to control; conditions: A498, 48 h, read-out: Activity
M14 = assay: Growth inhibition of human M14 cells assessed as cell growth at 10 uM incubated for 48 hrs by sulforhodamine B assay relative to control; conditions: M14, 48 h, read-out: Activity
EKVX [6] = assay: Growth inhibition of human EKVX cells incubated for 48 hrs by sulforhodamine B assay
RPMI-8226 = assay: Growth inhibition of human RPMI8226 cells assessed as cell growth at 10 uM incubated for 48 hrs by sulforhodamine B assay relative to control; conditions: RPMI-8226, 48 h, read-out: Activity
UACC-62 [7] = assay: Growth inhibition of human UACC62 cells incubated for 48 hrs by sulforhodamine B assay; conditions: UACC-62, 48 h
KM12 [8] = assay: Growth inhibition of human KM12 cells incubated for 48 hrs by sulforhodamine B assay; conditions: KM12, 48 h
SW-620 = assay: Growth inhibition of human SW620 cells assessed as cell growth at 10 uM incubated for 48 hrs by sulforhodamine B assay relative to control; conditions: SW-620, 48 h, read-out: Activity
UO-31 = assay: Growth inhibition of human UO31 cells assessed as cell growth at 10 uM incubated for 48 hrs by sulforhodamine B assay relative to control; conditions: UO-31, 48 h, read-out: Activity
NCI-H226 = assay: Growth inhibition of human NCI-H226 cells assessed as cell growth at 10 uM incubated for 48 hrs by sulforhodamine B assay relative to control; conditions: NCI-H226, 48 h, read-out: Activity
LOX IMVI = assay: Growth inhibition of human LOXIMVI cells assessed as cell growth at 10 uM incubated for 48 hrs by sulforhodamine B assay relative to control; conditions: read-out: Activity
PC-3 = assay: Growth inhibition of human PC3 cells assessed as cell growth at 10 uM incubated for 48 hrs by sulforhodamine B assay relative to control; conditions: PC-3, 48 h, read-out: Activity
MDA-MB-231 = assay: Growth inhibition of human MDA-MB-231 cells assessed as cell growth at 10 uM incubated for 48 hrs by sulforhodamine B assay relative to control; conditions: MDA-MB-231, 48 h, read-out: Activity
HT-29 = assay: Growth inhibition of human HT-29 cells assessed as cell growth at 10 uM incubated for 48 hrs by sulforhodamine B assay relative to control; conditions: HT-29, 48 h, read-out: Activity
SF-295 = assay: Growth inhibition of human SF295 cells assessed as cell growth at 10 uM incubated for 48 hrs by sulforhodamine B assay relative to control; conditions: SF-295, 48 h, read-out: Activity
[9] = read-out: LC50 (the source's name)

Compound: COc1cc2cc(Oc3ccc(NC(=O)Nc4cccc(C(F)(F)F)c4)cc3)c(C)nc2cc1OC
- GI50 (COLO 205): 1.12 µM
- TGI (COLO 205): 2.4 µM
- CC50 (COLO 205; [9]): 5.7 µM
- growth at 10 µM (SNB-19): 31.4%
- growth at 10 µM (EKVX [1]): 15.4%
- growth at 10 µM (NCI-H522): -17.4%
- GI50 (RXF 393 [2]): 1.63 µM
- TGI (RXF 393 [2]): 4.97 µM
- CC50 (RXF 393 [2]; [9]): 26.3 µM
- growth at 10 µM (SK-MEL-5): -86.1%
- GI50 (MCF7): 1.34 µM
- TGI (MCF7): 5.43 µM
- CC50 (MCF7; [9]): 18.9 µM
- GI50 (NCI-H322M): 2.84 µM
- TGI (NCI-H322M): 16.6 µM
- CC50 (NCI-H322M; [9]): > 50 µM
- growth at 10 µM (ACHN): 11.2%
- growth at 10 µM (KM12 [3]): -10.2%
- growth at 10 µM (CCRF-CEM): 6.41%
- GI50 (SR): 1.17 µM
- TGI (SR): 3.33 µM
- CC50 (SR; [9]): 32 µM
- growth at 10 µM (HOP-62): 25%
- growth at 10 µM (IGROV-1): 8.77%
- growth at 10 µM (UACC-62 [4]): 14.5%
- growth at 10 µM (K562): 11.5%
- growth at 10 µM (MDA-MB-468): -32.5%
- growth at 10 µM (Malme-3M): 7.22%
- growth at 10 µM (RXF 393 [5]): -13.1%
- growth at 10 µM (A498): 21.7%
- growth at 10 µM (M14): 22.6%
- GI50 (EKVX [6]): 1.48 µM
- LC50 (concentration killing 50% of cells) (EKVX [6]): > 50 µM
- TGI (EKVX [6]): 6.46 µM
- growth at 10 µM (RPMI-8226): -5.94%
- GI50 (UACC-62 [7]): 1.84 µM
- TGI (UACC-62 [7]): 10.9 µM
- CC50 (UACC-62 [7]; [9]): > 50 µM
- GI50 (KM12 [8]): 1.42 µM
- TGI (KM12 [8]): 5.92 µM
- CC50 (KM12 [8]; [9]): 36.1 µM
- growth at 10 µM (SW-620): 17.5%
- growth at 10 µM (UO-31): 11.3%
- growth at 10 µM (NCI-H226): -23.5%
- growth at 10 µM (LOX IMVI): 9.78%
- growth at 10 µM (PC-3): 0.08%
- growth at 10 µM (MDA-MB-231): -8.32%
- growth at 10 µM (HT-29): 6.56%
- growth at 10 µM (SF-295): -15.1%
